The text below walks through data of patent publication US20240180931A1, “CANNABINOIDS AND USES THEREOF IN TREATMENT OF A DISEASE” (TECHNION RESEARCH & DEVELOPMENT FOUNDATION LIMITED, priority 2021, published 2024).

The subject of test [1] is pCREB^S133 / ATF1 / PCNA in HaCaT cells. Nature of the test: western blot analysis of treated HaCaT cells (pCREB, ATF1, PCNA). The class given is cell-based, human. Particulars: for levels of active pCREB^S133 or ATF1 (western blot): HaCaT treated cells (FIG. 11B). As for the experimental part: (§1) In order to examine the underlying mechanism, the inventors next examined whether increased repair and proliferation is facilitated via the CAMP response element binding protein (CREB). First, the inventors utilized human keratinocyte cells (HaCaT). Cells were starved (serum-free) for 16 hours and then administered with Dimethyl sulfoxide (DMSO; carrier/solvent control), White Widow (WW) extract or cannabigerol (CBG). Next, the inventors performed immunofluorescence for activated phosphorylated CREB using specific antibodies.
In order to verify these findings, the inventors next performed western blot analysis of treated cells (as outlined above).
Background: Immunoblotting shows a protein as a band on a membrane.

For test [2], the system named is NF-kappa-B (p65; NF-κB) transcription factor. The test is described as follows: TNF-α-induced NF-κB (p65) translocation in HaCaT keratinocytes, immunofluorescence. The class given is cell-based, Human. Particulars: 30 minutes; for translocation of NF-kappa-B (p65) to the nucleus: serum starved 16 hours, extract 1 μg/ml, cannabinoids 10 μM (FIG. 4A). The method, then:
In order to examine the underlying mechanism, the inventors next examined whether improving health of the epidermis in psoriasis is dependent upon the NF-kappa-B (p65; NF-κB) transcription factor. NF-κB transcription factor is known to be active in psoriasis and high expression of its target genes leads to enhanced proliferation and inflammation (Goldminz et al., 2012). Human keratinocyte cells (HaCaT) were utilized. Cells were serum starved for 16 hours and then either non-treated (NTC) or administered with TNF-α along with either DMSO (Ctrl), Infinity (INF) extract, CBN, CBG, or THC at a concentration according to Table 2. Immunofluorescence was next performed for activated NF-κB using specific antibodies. The present data clearly indicate that, in response to TNF-α, the NF-κB (p65) transcription factor translocated to the nucleus.

In test [3] the test system is 1 cm^2 whole-thickness dorsal wounds. Nature of the test: whole-thickness dorsal wound healing and regeneration in mice. It counts as in vivo. To be noted: for wound healing by single cannabinoids, compared with WW strain: IP every second day, CBG 0.11 mg/kg, THC 3.7 mg/kg (FIGS. 10B-10C). As for the experimental part: To this end, 1 cm^2 whole-thickness dorsal wounds were inflicted on male or female 8-week-old wildtype (WT; C57BL/6J background) mice (n=at least 3 mice per group) and the wounded mice were treated with 5 mg/kg of each strain via intraperitoneal (IP) injection every two days (FIG. 9D). Dorsal wound coverage was measured by determining wound size (%) relative to the initial wound size.
Next, the inventors sought to understand whether any single cannabinoid component of the WW strain could potentiate the WW-induced phenotypes (FIG. 10A). For this, male and female mice (8-weeks-old) on WT (wild type; C57BL/6J) background were administered IP injections of cannabigerol (CBG; 0.11 mg/kg), tetrahydrocannabinol (THC; 3.7 mg/kg), cannabinol (CBN; 0.155 mg/kg), or cannabichromene (CBC; 0.0375 mg/kg), and dorsal wound was inflicted (n=at least 3 mice per group). Cannabinoid solutions are prepared by dissolving pure cannabinoids in 100% ethanol (EtOH) to a stock concentration of 100 mg/ml. Further dilution was achieved by preparing a 1:1:18 working solution of 100% EtOH:Cremophor:1×PBS. 100 μl was administered via IP injection to each mouse every second day starting from the day of wound infliction.

The subject of test [4] is cAMP response element binding protein (CREB). The test is described as follows: CREB phosphorylation in HaCaT keratinocytes, immunofluorescence. The class given is cell-based, human. Particulars: serum-free 16 hours, 30 minutes post-stimulation, WW 1 μg/ml, CBG 10 μM (FIG. 11A). The method, then: as §1
The next test has as its system CREB. Nature of the test: CREB phosphorylation in healing wounds in vivo, immunofluorescence. On the set-up: species or system mice. The text has this:
Thereafter, the inventors examined whether CREB is phosphorylated in healing wounds. The inventors performed full-thickness excisional wounds (as described above) and harvested wounds at 8 days post wound infliction.

Test [5] relates to 5%-Imiquimod (IMQ) model of psoriasis. Nature of the test: topical 5%-Imiquimod (IMQ) model of psoriasis in mice. It counts as in vivo. The method, then:
The therapeutic potentials of five different cannabis strains were determined (namely, Infinity (INF), White Widow (WW), Cannatonic (CNT), Dance Hall (DH), and Green Crack (GC)), utilizing an in vivo setting of skin pathology. For this aim, the topical 5%-Imiquimod (IMQ) model of psoriasis (FIGS. 1A-1B) was employed. In this model, 62.5 mg of IMQ cream is applied topically on depilated dorsal skins of mice (Fits et al., 2009) every second day concurrent with administration of extracts. Extracts were administered at 5 mg/kg dose via intraperitoneal (i.p.) injection.
Examining the cannabinoid constituents of INF, the inventors next applied IMQ and treated mice with either control (vehicle only), the 5 mg/kg INF extract, 1.6 mg/kg CBN, 0.1 mg/kg CBG, 3.7 mg/kg THC, or 0.04 mg/kg CBC (FIG. 3A).
Further, the recruitment of CD3^+ T cells to the epidermis was examined in 5% IMQ-treated skins.

Test [6] relates to tail skin sebaceous glands (SGs). The test is described as follows: DBL-induced acne in mouse tail skin in vivo. Further details: species or system mice. Particulars: DBL intradermal at tail base every second day for 10 days, treated from day 4; 5 mg/kg INF extract, 1.6 mg/kg CBN.
The test system of test [7] is NF-kappa-B (p65; NF-κB) signaling. The test is described as follows: TNF-α-induced NF-κB (p65) translocation in Blimp1+ sebocytes, immunofluorescence. It counts as cell-based, mouse. Particulars: serum starved 16 hours, TNF-α (FIGS. 8A-8B). The method, then:
In order to examine the underlying mechanism, the inventors assessed the effects of INF, THC and CBN in acne and whether it is mediated through downregulation of NF-kappa-B (p65; NF-κB) signaling. NFκB transcription factor is known to be active in acne and high expression of its target genes leads to enhanced proliferation and inflammation (Kang et al., 2005). The inventors utilized mouse primary sebaceous gland progenitors (Blimp1^+ sebocytes). Cells were serum starved for 16 hours and then either non-treated (NTC) or administered with TNF-α along with either DMSO (Ctrl), Infinity (INF) extract, CBN or THC (FIGS. 8A-8B). The inventors next performed immunofluorescence for activated NF-κB using specific antibodies. The present data clearly indicate that in response to TNF-α the NF-κB (p65) transcription factor translocates to the nucleus in Blimp1^+ sebocytes.

The mark [8] stands for this setting: IMQ-treated mice, 5 mg/kg INF extract, 3.7 mg/kg THC (FIGS. 3B-3D).

For the compound `CCCCCc1cc(O)c2c(c1)OC(C)(CCC=C(C)C)C=C2` (centres unmarked) [CBC, cannabichromene], in test [1], the “levels of active pCREB^S133 or ATF1 (western blot)” value (from here on “levels of active pCREB^S133 or ATF1”) is listed as “only minimal (if any) effect”.

Take `CCCCCc1cc(O)c(C/C=C(\C)CCC=C(C)C)c(O)c1` [CBG, cannabigerol]: the “translocation of NF-kappa-B (p65) to the nucleus” value (from here on “translocation of NF-kappa-B (p65)”) in test [2] is given as “had no effect”. Also, in test [3] (CBG 0.11 mg/kg IP every second day (FIG. 10D)), the “epidermal invaginations in treated skins, 8 days post wounding” value was “considerably more epidermal invaginations”. Besides, the “regenerated hair follicles in wounds, 18 days” value in test [3] (CBG 0.11 mg/kg IP every second day (FIGS. 10E-10F)) is given as “striking number of regenerated hair follicles”. Also, the “wound healing by single cannabinoids, compared with WW strain” value in test [3] is recorded as “healed comparably to the WW strain”. Further, the “CREB phosphorylation (pCREB^S133) and translocation to the nucleus” value in test [4] is “highly phosphorylated”. Besides, in test [1], the “levels of active pCREB^S133 or ATF1” value is “high phosphorylation of CREB and ATF”. Moreover, the “proliferation as indicated by the proliferation marker PCNA” value in test [1] (HaCaT treated cells (FIG. 11C)) was “increased proliferation”. For the same compound, the “localisation of activated p-CREB in treated wounds” value in the test on CREB (CBG-treated wounds (FIG. 11F)) was “co-expressed with proliferative markers”. In addition, the “activated pCREB^S133 in the epidermis adjacent to the wound” value with CREB (full-thickness excisional wounds, 8 days post wound infliction (FIGS. 11D-11E)) is listed as “dramatic increase”.

With `CCCCCc1cc(O)c2c(c1)OC(C)(C)c1ccc(C)cc1-2` [CBN, cannabinol], in test [5] (5% IMQ-treated skins, harvested 8 days post administration (FIG. 5)), the “recruitment of CD3+ T cells to the epidermis” value is “substantially reduced”. Besides, the “inhibition of NF-κB (p65) translocation, comparison between treatments (% nuclear NF-κB positive cells)” value in test [2] (10 μM (FIG. 4B)) is reported as “best results of inhibition”. Moreover, the “translocation of NF-kappa-B (p65)” value in test [2] is recorded as “strongly inhibited”. For the same compound, in test [6], the SG cell hyperproliferation result was “prevented” and the sebum over-production entry is “prevented”. Besides, the “translocation of NFκB (p65) to the nucleus” value in test [7] is “strongly inhibited”. In addition, the “levels of active pCREB^S133 or ATF1” value in test [1] was “only minimal (if any) effect”.

For `CCCCCc1cc(O)c2c(c1)OC(C)(C)[C@@H]1CCC(C)=C[C@@H]21` [THC, tetrahydrocannabinol], in test [5] (setting [8]), the “decreasing abnormal levels of proliferation” value is listed as “comparable” and the “prevention of overgrowth of the epidermis” value is on record as “comparable”. The “translocation of NF-kappa-B (p65)” value in test [2] is recorded as “strongly inhibited”. For the same compound, the “translocation of NFκB (p65) to the nucleus” value in test [7] was “strongly inhibited”. In addition, the “wound healing by single cannabinoids, compared with WW strain” value in test [3] is listed as “to some extent”. Besides, in test [1], the “levels of active pCREB^S133 or ATF1” value is recorded as “only minimal (if any) effect”.
